Assay results: ChEMBL document CHEMBL1152465, “Comparative evaluation of the inhibitory activities of a series of pyrimidinedione congeners that inhibit human immunodeficiency virus types 1 and 2” (Antimicrob Agents Chemother, 2008)
The source made the active and inactive calls.

Experiments:
[1] = Cytotoxicity against human HeLa cells expressing CD4-LTR by XTT assay; format: cell-based; conditions: read-out: TC50 (the source's name)
[2] = test system: Human immunodeficiency virus 2; assay: Antiviral activity against HIV2 assessed as inhibition of viral replication treated at time points after viral entry into host cells; format: functional, organism-based
[3] = test system: Human immunodeficiency virus 1; assay: Antiviral activity against HIV1 RF infected in human CEM-SS cells assessed as inhibition of virus-induced cytopathic effect by XTT assay; format: functional, organism-based; conditions: Human immunodeficiency virus 1, RF
[4] = test system: Human immunodeficiency virus 1; assay: Antiviral activity against HIV1 infected in human HeLa cells expressing CD4-LTR assessed as inhibition of viral entry-related beta galactosidase expression treated for 2 hrs followed by drug wash out measured after 48 hrs by MAGI assay; format: functional, organism-based; conditions: Human immunodeficiency virus 1, HeLa
[5] = test system: Human immunodeficiency virus 2; assay: Antiviral activity against HIV2 assessed as inhibition of viral single round replication at early time point; format: functional, organism-based
[6] = Therapeutic index, ratio of TC50 human HeLa cells expressing CD4-LTR to EC50 for HIV1 entry inhibition in human HeLa cells expressing CD4-LTR; format: cell-based; conditions: read-out: TI
[7] = test system: Human immunodeficiency virus 2; assay: Antiviral activity against HIV2 ROD infected in human CEM-SS cells assessed as inhibition of virus-induced cytopathic effect by XTT assay; format: functional, organism-based, ISOLATE ROD
[8] = biological target: Human immunodeficiency virus type 1 reverse transcriptase (Human immunodeficiency virus 1, UniProt Q72547, K103N); assay: Inhibition of HIV1 reverse transcriptase K103N mutant assessed as 32P-labeled GMP incorporation into nascent DNA strand
[9] = Therapeutic index, ratio of TC50 for human CEM-SS cells to EC50 for HIV1 RF infected in human CEM-SS cells; format: cell-based; conditions: read-out: TI
[10] = test system: Human immunodeficiency virus 1; assay: Antiviral activity against HIV1 infected in human CEM-SS cells assessed as inhibition of viral replication and virus-induced cytopathic effect by dose-response curve analysis; format: functional; conditions: Human immunodeficiency virus 1, CEM-SS
[11] = test system: Human immunodeficiency virus 2; assay: Inhibition of HIV2 reverse transcriptase
[12] = test system: Human immunodeficiency virus 2; assay: Inhibition of HIV2 reverse transcriptase assessed as 32P-labeled GMP incorporation into nascent DNA strand at highest concentration
[13] = Therapeutic index, ratio of TC50 for human CEM-SS cells to EC50 for HIV2 ROD infected in human CEM-SS cells; format: cell-based; conditions: for selectivity ratio: CEM-SS cells, read-out: TI; for TI: cem-ss
[14] = Cytotoxicity against human CEM-SS cells by XTT assay; format: cell-based; conditions: read-out: TC50 (the source's name)
[15] = biological target: Human immunodeficiency virus type 1 reverse transcriptase (Human immunodeficiency virus 1, UniProt Q72547); assay: Inhibition of wild type HIV1 reverse transcriptase assessed as 32P-labeled GMP incorporation into nascent DNA strand
[16] = Human immunodeficiency virus 2, ISOLATE ROD, CEM-SS, read-out: EC50

SMILES	CC50 [1] [µM]	Activity [2]	EC50 [3] [µM]	EC50 [4] [µM]	Activity [5]	selectivity ratio [6]	EC50 [7, 16] [µM]	IC50 [8] [µM]	selectivity ratio [9]	EC99 [10] [µM]	Activity [11]	Activity [12]	selectivity ratio [13]	CC50 [14] [µM]	IC50 [15] [µM]	EC50 ([7]; cem-ss)	TI [13]
Cc1cc(C)cc(Sc2c(C(C)C)c(=O)[nH]c(=O)n2CC2CCCCC2)c1	15.2	inactive	0.011	0.008	Active	1890	5.5	> 258	1560	1	inactive	inactive	2.4	13.2	0.164	–	–
Cc1cc(C)cc(C(=O)c2c(C(C)C)c(=O)[nH]c(=O)n2CC2CCCCC2)c1	30.4	inactive	0.0052	0.24	Active	127	0.7	16.5	8550	1	inactive	inactive	23.8	16.2	0.008	–	–
CC(C)c1c(C(=O)c2ccccc2)n(CC2CC=CC2)c(=O)[nH]c1=O	1180	inactive	0.0059	0.8	Active	1480	18.1	> 295	200000	1	inactive	inactive	> 65.5	1180	0.18	–	–
Cc1cc(C)cc(C(=O)c2c(C(C)C)c(=O)[nH]c(=O)n2CCC2=CCCC2)c1	29.4	inactive	0.053	0.03	Active	1040	–	230	750	1	inactive	inactive	–	19.2	0.223	Not Active	Not Active
Cc1cc(C)cc(Sc2c(C(C)C)c(=O)[nH]c(=O)n2CCC2CCCC2)c1	15.4	inactive	0.15	1.28	Active	12	–	205	92	1	inactive	inactive	–	14.2	0.233	Not Active	Not Active
Cc1cc(C)cc(Sc2c(C(C)C)c(=O)[nH]c(=O)n2CC2CC=CC2)c1	23.2	inactive	1.22	0.08	Active	307	15.3	> 270	22	1	inactive	inactive	> 1.3	26.5	0.241	–	–
Cc1cc(C)cc(Oc2c(C(C)C)c(=O)[nH]c(=O)n2CCC2CC=CC2)c1	14.2	inactive	0.02	2.24	Active	6	1.4	2.3	918	1	inactive	inactive	7.3	10.3	0.176	–	–
Cc1cc(C)cc(Sc2c(C(C)C)c(=O)[nH]c(=O)n2CCC2C=CCC2)c1 (stereo not given)	31.9	inactive	0.021	0.009	Active	3650	4.8	> 260	1850	1	inactive	inactive	5.4	25.8	0.246	–	–
Cc1cc(C)cc(C(=O)c2c(C(C)C)c(=O)[nH]c(=O)n2CC2CCCC2)c1	16.6	inactive	0.0035	0.08	Active	203	0.4	15.3	5080	1	inactive	inactive	40	15.2	0.147	–	–
CCc1c(Sc2cc(C)cc(C)c2)n(CC2CC2)c(=O)[nH]c1=O	14.4	inactive	0.0008	0.009	Active	1580	0.1	0.257	25500	1	inactive	inactive	62.5	7.6	0.018	–	–
CCc1c(C(=O)c2cc(C)cc(C)c2)n(CCC2CC=CC2)c(=O)[nH]c1=O	45	inactive	0.013	1.25	Active	36	1.5	1.9	5660	1	inactive	inactive	8.8	13.4	0.018	–	–
CCc1c(Oc2cc(C)cc(C)c2)n(CCC2CC=CC2)c(=O)[nH]c1=O	1110	inactive	0.23	1.95	Active	570	1.5	9.8	4870	1	inactive	inactive	> 734	1100	1.14	–	–
Cc1cc(C)cc(C(=O)c2c(C)c(=O)[nH]c(=O)n2CC2CC=CC2)c1	81.9	inactive	5.91	0.68	Active	121	29.6	> 295	14	1	inactive	inactive	2.8	81.9	12.7	–	–
CCc1c(C(=O)c2cc(C)cc(C)c2)n(CCC2CCCC2)c(=O)[nH]c1=O	22.2	inactive	0.01	0.02	Active	1230	–	> 271	2580	1	inactive	inactive	–	25.8	0.119	Not Active	Not Active
CCc1c(Sc2cc(C)cc(C)c2)n(CCC2C=CCC2)c(=O)[nH]c1=O (stereo not given)	6.25	inactive	0.01	0.03	Active	192	0.6	> 270	641	1	inactive	inactive	10	5.7	0.128	–	–
Cc1cc(C)cc(Sc2c(C(C)C)c(=O)[nH]c(=O)n2CC2CCCC2)c1	10.6	inactive	0.011	0.27	Active	39	–	> 268	1260	1	inactive	inactive	–	7	0.129	Not Active	Not Active
CCc1c(Sc2cc(C)cc(C)c2)n(CC2CCCCC2)c(=O)[nH]c1=O	71.7	inactive	0.134	0.05	Active	1320	26.9	> 268	534	1	inactive	inactive	2.7	71.7	0.152	–	–
